Source: PubChem BioAssay AID1996
Converted amounts (≈) assume the structure as drawn.

Conditions: buffer; pH 7.4; 200.0 µM

| SMILES | solubility kinetic [µg/mL] |
| --- | --- |
| Cc1ccc2c(c1)N(CC(=O)Nc1nccs1)C(=O)CO2 | 1.3 (≈ 4.29 µM) |
| CCCCNc1nc2c(c(=O)n(Cc3ccccc3)c(=O)n2C)n1C | 4.1 (≈ 12 µM) |
| O=C(NCCNC(=O)c1ccccc1Cl)c1ccco1 | 39.7 (≈ 136 µM) |
| COC(=O)c1cccc(N2C(=O)C3C4C=CC(CC4)C3C2=O)c1 (configuration not stated) | 9.2 (≈ 29.5 µM) |
| Cc1cccc(C(C)C)c1NC(=O)c1c(-c2ccccc2)noc1C | 0.6 (≈ 1.79 µM) |
| Cc1ccc(-n2ccnc(SCC(=O)NC3CCCC3)c2=O)cc1Cl | 3 (≈ 7.94 µM) |
| O=C(COC(=O)c1ccccc1)NC1CCCCCC1 | 39.7 (≈ 144 µM) |
| O=C(Nc1ccc(F)cc1)c1ccccc1NC(=O)C1CC=CCC1C(=O)O (configuration not stated) | > 57.4 |
| CC(=O)CC(CC(=O)NC1CCCCC1)c1ccccc1 (configuration not stated) | > 43.1 |
| CN(CC(=O)NCc1ccc2c(c1)OCO2)S(=O)(=O)c1ccc(Cl)cc1 | 8.6 (≈ 21.7 µM) |
| COc1ccc(C(=O)Nc2ccc(CN3CCS(=O)(=O)CC3)cc2)cc1 | 1.3 (≈ 3.47 µM) |
| Cc1ccnc(Nc2nc(-c3ccc(F)cc3)cs2)c1 | < 0.2 |
| NS(=O)(=O)c1ccc(CCNC(=O)c2ccco2)cc1 | > 44.1 |
| CCn1cc(C(=O)N2CCOCC2)c2ccccc21 | > 38.7 |
| CCOC(=O)c1oc2ccc(Cl)cc2c1NC(C)=O | 4.8 (≈ 17 µM) |
| CCCc1nnc(SCC(=O)Nc2cc(C)on2)n1CCOC | > 50.9 |
| Cc1ccc2nc(SCC(=O)Nc3c(F)cccc3F)[nH]c2c1 | 43.4 (≈ 130 µM) |
| O=C(COC(=O)c1cc(=O)[nH]c2ccccc12)NCCc1ccccc1 | 21.1 (≈ 60.2 µM) |
| Cc1cc(SCC(=O)NC2CCCCC2)nc2ccccc12 | 1.2 (≈ 3.82 µM) |
| CSc1ccccc1NC(=O)C1CCCN(S(C)(=O)=O)C1 (configuration not stated) | > 49.3 |
| CCCCn1cnc2c(oc3nc4c(cc32)CCCC4)c1=O | 20.6 (≈ 69.3 µM) |

| SMILES | solubility kinetic [µg/mL] |
| --- | --- |
| Cc1cc(N2CCN(C(=O)/C=C/C(=O)O)CC2)c2ccccc2n1 | 48.6 (≈ 149 µM) |
| Cn1c(=O)[nH]c2c(Cl)nccc21 | > 27.5 |
| CC1CCCCC1NC(=O)COC(=O)c1ccc2c(c1)NC(=O)CS2 (configuration not stated) | 9.8 (≈ 27 µM) |
| COc1cc(C(=O)NNC(=O)C2CCCC2)cc(OC)c1OC | > 48.4 |
| O=C(O)CNc1ccccc1C(=O)O | > 29.3 |
| CC(C)(C)OC(=O)NCCC(=O)N/N=C/c1ccc2ncccc2c1 | > 51.4 |
| CCc1ccc(-n2c([O-])c(C(C)=O)c(=O)[nH]c2=O)cc1.C[NH+](C)C | 38.5 |
| CC(C)N(Cc1ccccc1)C(=O)COC(=O)c1cnccn1 | > 47 |
| CCNc1nc2c(c(=O)[nH]c(=O)n2C)n1CCCc1ccccc1 | 20.8 (≈ 63.5 µM) |
| O=C(Cc1ccc(Cl)c(Cl)c1)Nc1cccc2ncccc12 | 2.1 (≈ 6.34 µM) |
| CCC1C(=O)Nc2ccccc2N1C(=O)COc1ccccc1 (configuration not stated) | > 46.6 |
| Brc1ccccc1OCCCOc1cccc2cccnc12 | 1.5 (≈ 4.19 µM) |
| CCOC(=O)c1cc(C)sc1/N=C/C1C(=O)NC(=S)NC1=O | 4.7 (≈ 13.8 µM) |
| O=S(=O)(c1ccccc1)c1ccc(N2CCCCCC2)cc1 | < 0.7 |
| O=C(CNS(=O)(=O)c1ccc(Br)cc1)Nc1ccc2c(c1)OCCO2 | 8.7 (≈ 20.4 µM) |
| C=CCn1c(C)c(C=C2C(=O)NC(=O)NC2=O)c2ccccc21 | > 46.4 |
| NC(=O)c1cc(NC(=O)COC(=O)CCCN2C(=O)c3cccc4cccc(c34)C2=O)cc(C(N)=O)c1 | 4.9 (≈ 9.75 µM) |
| CC1(C)Cc2c(C#N)c(SCC(=O)O)nc(N3CCOCC3)c2CO1 | 52.7 (≈ 145 µM) |
| CC1(C)CC(=O)N(c2cccc(Cl)c2)C(=O)C1 | > 37.8 |
| CC(C)CN(C(=O)CN(C)CC(=O)Nc1ccc(Cl)c(C(F)(F)F)c1)c1c(N)n(CC(C)C)c(=O)[nH]c1=O | 6 (≈ 10.7 µM) |
| O=C(NCc1ccco1)c1cc(Cl)nc(Cl)c1 | 40.3 (≈ 149 µM) |

| SMILES | solubility kinetic [µg/mL] |
| --- | --- |
| O=C(COC(=O)c1ccc([N+](=O)[O-])cc1)Nc1ccccc1C(=O)NC1CC1 | 8.5 (≈ 22.2 µM) |
| CSc1ncccc1C(=O)OCC(=O)NC12CC3CC(CC(C3)C1)C2 | 21.8 (≈ 60.5 µM) |
| O=C(N/N=C/c1cccnc1)c1cc(C2CC2)nc2ccccc12 | > 47.5 |
| CC(=O)N1CCN(C(=O)CCC(=O)O)CC1 | 30.9 (≈ 135 µM) |
| O=Cc1cn(CCOc2ccccc2)c2ccccc12 | 12.9 (≈ 48.6 µM) |
| N#CC(C#N)=C(N)Nc1cccc(Cl)c1 | 30.7 (≈ 140 µM) |
| CCOC(=O)CN(C(=O)c1ccccc1[N+](=O)[O-])C(C)(C)C | 43.7 (≈ 142 µM) |
| CCN1CCOC(CC(=O)Nc2ccc([N+](=O)[O-])cc2)C1=O (configuration not stated) | 40.2 (≈ 131 µM) |
| CN=C1S/C(=C\c2cccc(Cl)c2Cl)C(=O)N1C | < 0.3 |
| O=C(Nc1ccc(NC(=O)c2ccccc2Cl)nc1)c1ccco1 | 10.2 (≈ 29.8 µM) |
| Cn1c(=O)cc(N)n(-c2ccccc2)c1=O | > 32.6 |
| CNc1nc(-c2ccccc2)[n+](-c2ccc(C)cc2)s1.[Br-] | 42.1 |
| CN(C)S(=O)(=O)c1cccc(NC(=O)COC(=O)c2ccc3ccccc3n2)c1 | 40 (≈ 96.7 µM) |
| O=C(NNC(=O)C1CCN(S(=O)(=O)c2ccccc2)CC1)c1ccccc1O | > 60.5 |
| N#Cc1ccc(COc2cccc3cccnc23)cc1 | 32.4 (≈ 124 µM) |
| O=C1CS/C(=N\NC(=O)c2ccccc2)N1 | > 35.3 |
| CCOC(=O)COc1nc(-c2ccccc2)cc(-c2ccco2)c1C#N | < 0.4 |
| COc1ccc([N+](=O)[O-])cc1NC(=O)Nc1ccc(OC)c(OC)c1 | 0.3 (≈ 0.864 µM) |
| NC(=O)c1ccccc1NC(=O)c1cccc(C(=O)Nc2ccccc2C(N)=O)n1 | 5.3 (≈ 13.1 µM) |
| CC(Oc1ccc2c(-c3ccccc3)cc(=O)oc2c1)C(=O)N1CCOCC1 (configuration not stated) | > 56.9 |
| CC(OC(=O)/C(C#N)=C/c1ccco1)C(=O)N(C)c1ccccc1 (configuration not stated) | 47.8 (≈ 147 µM) |

| SMILES | solubility kinetic [µg/mL] |
| --- | --- |
| CCOc1ccc(NC(=O)c2ccccc2SC)cc1 | 2.4 (≈ 8.35 µM) |
| O=[N+]([O-])c1ccc(Sc2ccccn2)nc1 | 34.9 (≈ 150 µM) |
| Cc1ccc(OCC(O)Cn2nc(C)cc2C)cc1 (configuration not stated) | > 39.1 |
| Cc1cc(NC(=O)c2ccc([N+](=O)[O-])cc2)n(C)n1 | > 39 |
| COc1cccc(C(=O)Nc2ccc3[nH]c(=O)[nH]c3c2)c1OC | 27.7 (≈ 88.4 µM) |
| COc1ccc(OC)c(NC(=O)CN2CCc3ccccc3C2)c1 | 14.9 (≈ 45.7 µM) |
| O=C(c1ccc2nc[nH]c2c1)N1CCc2ccccc2C1 | > 41.6 |
| CC(C)C(=O)Nc1c(-c2ccccc2F)c(=O)c2ccccc2n1C | 49.4 (≈ 146 µM) |
| CC(NC(=O)c1cc(F)c(F)cc1Cl)C1CC2CCC1C2 (configuration not stated) | 5.6 (≈ 17.8 µM) |
| N#Cc1ccccc1NC(=O)COC(=O)/C=C/c1ccc(S(=O)(=O)N2CCOCC2)cc1 | 5.7 (≈ 12.5 µM) |
| O=C(COC(=O)CCC1CCCC1)Nc1ccccc1OC(F)F | 9.7 (≈ 28.4 µM) |
| Cc1ccc2c(c1)c(C1=c3ccccc3=NC1=O)c(O)n2C | 1.1 (≈ 3.79 µM) |
| COc1ccc(Nc2oc(-c3ccccc3F)nc2C#N)cc1 | < 0.2 |
| COC(=O)C(Cc1ccccc1)NC(=O)CC(C)CC(=O)Nc1ccc(C)cc1 (configuration not stated) | 14.3 (≈ 36.1 µM) |
| COc1ccc(C2(c3ccc(OC)cc3)NC(=O)NC2=O)cc1 | > 46.8 |
| COc1ccc(NC(=O)Cc2ccc(C)c(C)c2)cc1S(=O)(=O)N1CCCCC1 | 12.8 (≈ 30.7 µM) |
| Cc1cc(C)cc(NC(=O)C2CCN(c3cnccn3)CC2)c1 | 13.7 (≈ 44.1 µM) |
| Cc1ccc(CN2C(=O)C3CCCN3c3ncccc32)cc1 (configuration not stated) | 33.3 (≈ 114 µM) |
| Brc1ccc(-c2cnco2)cc1 | 2.2 (≈ 9.82 µM) |
